Source: patent US6692927B2, “Bax degradation involvement in tumor survival and progression” (University of South Florida, priority 2000, dated 2004)
Where a SMILES comes first, the peptide text is derived from it. [ ]: non-standard residue; d: D form. The star is where a group is joined. Nva = CCC[C@H](N)C(=O)O; Cbz = O=C(OCc1ccccc1)*

How the values were obtained:
[1] = system: human breast cancer (SK-BR-3, MDA-MB-468) cells; assay: cellular detachment of breast cancer cells; assay type: cell-based; conditions: breast cancer versus normal (MCF-10A) cells
Method: Proteasome inhibitors selectively induce apoptosis in human breast cancer, but not normal, cells. […] Cells of both human breast cancer lines became detached in a lactacystin-concentration-dependent manner (FIG. 3). No detachment was induced in the normal human breast cells MCF-10A after treatment with lactacystin for 48 hours (FIG. 3) or even 72 hours. Proteasome inhibition-induced detachment of breast cancer cells is due to apoptosis (An et al., in press).

Bax degradation activity = assay: cell-free Bax degradation assay, inhibitor added to MCF-7 cell extract; assay type: biochemical, human; conditions: 10-minute preincubation of MCF-7 cell extract with inhibitor (100 mM per FIG. 9C legend), 37° C., 4 h
Method: FIGS. 9A-9F show Bax degradation depends on ubiquitination, proteasome and ATP. (FIG. 9A) Jurkat cells (0 h) were treated with either 50 μM LLnV or 10 μM lactacystin, followed by preparation of Bax immunoprecipitates (with clone 6A7), which were immunoblotted with an ubiquitin antibody. Positions of putative ubiquitinated Bax proteins (p47, p55) are indicated at left. The nature of the ˜30 kDa and ˜84 kDa remains unclear. (FIG. 9B) The [^35S]-labeled Bax (upper) or Bcl-2 (lower) protein (1 μl) were incubated at 37° C. for 2 h with either buffer Z only (lane 1) or […] protein extract of MCF-7 cells grown exponentially (lane 2) or pretreated for 8 h with […] LLnV (lane 3). (FIG. 9C) The [^35S]-labeled Bax protein (1 μl) was incubated with either buffer Z only (lane 1) or 100 μg MCF-7 cell lysate at 37° C. for 4 h, in the presence of an indicated inhibitor (100 mM; lanes 3-8) or an equal volume of DMSO (lane 2) in buffer Z. A weak band of ˜16 kDa (indicated by an arrow) is probably an intermediate product of proteasome-mediated Bax degradation. (FIG. 9D) The proteasome in MCF-7 whole cell lysate (W lys, lane 1) was precipitated by using either ultraspin (ULS) or a proteasome subunit a6 antibody (IP). Both supernatant (lanes 2, 4) and pellet (lanes 3, 5) fractions were examined by Western blot assay using antibody to the proteasome a6 subunit (MW 33 kDa). (FIG. 9E) Bax degradation assay was performed as in FIG. 9B, with addition of buffer Z (lane 1) or 100 μg protein from MCF-7 whole cell lysate (lane 2), ultraspun supernatant (lane 3) or plus the pellet (lane 4), immunodepleted supernatant (lane 5) or plus a purified 20S proteasome ([…]; lane 6), or the purified proteasome alone (2 μg; lane 7). (FIG. 9F) Bax degradation assay was performed as in FIG. 9B, in the absence (lane 3) or presence of 10 mM ATP (lane 2) or 10 mM ATP-y-S (lane 4).
In vitro Bax Degradation Assay: Human Bax-a cDNA subcloned into pcDNA3 was a gift from Dr. Hong-gang Wang. Human full length of bcl-2-a cDNA was cloned from Jurkat T cells and subcloned into pcDNA3.1(−) as described+. Both bax and bcl-2 plasmids were used for coupled in vitro transcription/translation (Promega; Madison, Wis.) in the presence of [^35S]methionine (Amersham Pharmacia Biotech; Piscataway, N.J.). Protein extracts were prepared from either MCF-7 cells or prostate tumor tissues in buffer Y (50 mM Tris-HCl, pH 7.4, 250 mM NaCl, 1% Triton X-100, 0.1% SDS, 1 mM EDTA), and used for Bax (or Bcl-2) degradation assay. Briefly, 1 microl of [^35S]-labeled Bax (or Bcl-2) protein was incubated at 37° C. for 2-4 hours with 100-200 microg protein extract in buffer Z (50 mM Tris-HCl, pH 7.4, 5 mM MgCl2, 3 mM DTT, 10 mM ATP, 10 mM phosphocreatine, 10 microg/ml creatine phosphokinase, 10 microg/ml aprotinin, 10 microg/ml leupeptin, 10% glycerol and 2 microg/ml ubiquitin). After incubation, the samples were subjected to gel electrophoresis and autoradiography. Under the cell-free assay conditions, the calpain-mediated Bax cleavage activity was blocked by omission of calcium and addition of the protease inhibitor leupeptin (Wood et al, 1998). To deplete the proteasome, MCF-7 cell lysates were either immunoprecipitated with the 20S proteasome subunit a6 antibody or ultracentrifugated at 100,000×g for 6 hours. The proteasome-enriched pellet fraction was resuspended in buffer Y.
To further study the proteasome activity that degrades Bax protein, a cell-free Bax degradation assay was developed by using an in vitro-translated, [^35S]-labeled Bax protein as substrate (FIG. 9B, upper, lane 1). The Bax degradation activity is present in protein extracts prepared from exponentially growing MCF-7 (FIG. 9), K562, VA-13, WI-38, Jurkat T or HL-60 cells. The labeled Bax was almost completely degraded by a MCF-7 cell extract after 2 to 4 hours incubation at 37° C. (FIG. 9B, upper, and FIG. 9C, lanes 2 vs. 1). […]

SMILES	cellular detachment [1]	Bax degradation process/activity (Bax degradation activity)
CC(=O)N[C@@H](CSC(=O)[C@]1([C@@H](O)C(C)C)NC(=O)[C@H](C)[C@@H]1O)C(=O)O [lactacystin]	selectively induced cellular detachment	not
CCC[C@@H](C=O)NC(=O)[C@H](CC(C)C)NC(=O)[C@H](CC(C)C)NC(=O)OCc1ccccc1 [LLnV] (Cbz-Leu-Leu-[Nva]-aldehyde)	selectively induced cellular detachment	blocked
